# Experimental data as given in PubChem BioAssay (NCI).
#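 48-hour exposure; five concentrations; linearly interpolated endpoints. At the TGI there is no net growth.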
# Legend:
# Experiment in all cases: NCI-60 cell line screen, 48 h
# CCRF-CEM leukemia = tested on: CCRF-CEM leukemia
# COLO 205 colon = tested on: COLO 205 colon
# HOP-92 NSCLC = tested on: HOP-92 NSCLC
# MDA-MB-435 = tested on: MDA-MB-435
# NCI-H522 lung = tested on: NCI-H522 lung
# SF-295 CNS = tested on: SF-295 CNS
# SK-MEL-2 melanoma = tested on: SK-MEL-2 melanoma
# SK-MEL-28 melanoma = tested on: SK-MEL-28 melanoma
# SNB-75 CNS = tested on: SNB-75 CNS
# U251 CNS = tested on: U251 CNS
SMILES,TGI (CCRF-CEM leukemia),TGI (COLO 205 colon),TGI (HOP-92 NSCLC),TGI (MDA-MB-435),TGI (NCI-H522 lung),TGI (SF-295 CNS),TGI (SK-MEL-2 melanoma),TGI (SK-MEL-28 melanoma),TGI (SNB-75 CNS),TGI (U251 CNS)
Cc1sc2nc3n(c(=O)c2c1C)N=CN(c1ccc(F)cc1)C3,> 100 µM,> 100 µM,83.9 µM,> 100 µM,> 100 µM,> 100 µM,> 100 µM,> 100 µM,> 100 µM,> 100 µM
S=c1[nH]c2ccc(I)cc2c(=S)n1Cc1ccccc1,6.06 µM,25.2 µM,9.34 µM,> 100 µM,16.5 µM,11.5 µM,18 µM,> 100 µM,13.7 µM,12.9 µM
COc1cc(CS(=O)c2ccc(O)cc2)cc(OC)c1OC (stereo not given),> 100 µM,> 100 µM,> 100 µM,> 100 µM,> 100 µM,> 100 µM,> 100 µM,> 100 µM,> 100 µM,> 100 µM
O=C(O)C(=O)/C=C(\O)c1ccc(Br)cc1,> 100 µM,> 100 µM,> 100 µM,> 100 µM,> 100 µM,> 100 µM,> 100 µM,> 100 µM,> 100 µM,> 100 µM
CN(Cc1cc(Cl)c(Cl)cc1NC(=O)CN)[C@H]1CCCC[C@@H]1N1CCCC1,> 100 µM,33.9 µM,> 100 µM,32.9 µM,40.4 µM,36.6 µM,31.9 µM,41.5 µM,> 100 µM,18.8 µM
C=C1C(=O)OC2CC3(C)OC3CC/C(C)=C/C(OC(C)=O)C12 (stereo not given),12.7 µM,4.03 µM,4.69 µM,25.2 µM,2.64 µM,27.4 µM,31.5 µM,16.8 µM,22 µM,33.5 µM
CCOC(=O)c1c(-c2cccc3ccccc23)c(C#N)c(=S)n(C2OC(COC(C)=O)C(OC(C)=O)C(OC(C)=O)C2OC(C)=O)c1C (stereo not given),> 100 µM,> 100 µM,> 100 µM,> 100 µM,> 100 µM,> 100 µM,> 100 µM,> 100 µM,87.9 µM,> 100 µM
Oc1cc(Br)cc2cc(Cl)cnc12,7.23 µM,> 54.9 µM,> 100 µM,> 67.7 µM,10.6 µM,> 48 µM,95.9 µM,> 100 µM,> 90.3 µM,> 82.8 µM
CCN1CCC(O)(/C=C/c2ccc(C(C)C)cc2)C(C(=O)/C=C/c2ccc(C(C)C)cc2)C1 (stereo not given),4.36 µM,5.11 µM,3.69 µM,8.99 µM,4.21 µM,9.36 µM,10.5 µM,11.7 µM,11.7 µM,7.32 µM
Fc1cc(-c2cc(-c3ccc4c(c3)OCO4)n[nH]2)c(Cl)cc1Cl,> 89 µM,> 23.4 µM,6.21 µM,30.9 µM,14.6 µM,9.4 µM,36.5 µM,16.9 µM,3.68 µM,3.63 µM
CC1=C(C)C(=O)C(C2=CC(=O)C=CC2=O)=C(C2=CC(=O)C=CC2=O)C1=O,> 100 µM,> 100 µM,> 78.9 µM,> 83.7 µM,64.7 µM,> 100 µM,> 100 µM,> 100 µM,> 100 µM,> 77.5 µM
Oc1ccc(Cl)cc1C1=NC(/N=C\c2ccccc2)=NC(c2ccccc2)C1 (stereo not given),> 100 µM,> 100 µM,> 100 µM,> 100 µM,> 100 µM,> 100 µM,> 100 µM,> 100 µM,64.7 µM,> 100 µM
C[N+](C)(CCNC(=O)c1cccc2cc3ccccc3nc12)Cc1ccc([N+](=O)[O-])s1,> 25 µM,> 25 µM,> 25 µM,> 25 µM,> 25 µM,> 25 µM,> 25 µM,> 25 µM,> 25 µM,> 25 µM
C=CCn1c(-c2ccc([N+](=O)[O-])cc2)csc1=N,34.7 µM,> 100 µM,> 100 µM,> 100 µM,> 100 µM,> 100 µM,> 100 µM,> 100 µM,95.6 µM,> 100 µM
CCC(NC1=NCCO1)c1cccs1 (stereo not given),65.4 µM,34.9 µM,32.6 µM,27.6 µM,35.6 µM,28.4 µM,29.4 µM,29 µM,16.9 µM,26.3 µM
O=C(O)CCC(NC(=O)c1ccc(Nc2nc3cc(C(F)(F)F)ccc3nc2C(=O)O)cc1)C(=O)O (stereo not given),> 100 µM,> 100 µM,> 100 µM,> 100 µM,> 100 µM,> 100 µM,> 100 µM,> 100 µM,> 100 µM,> 100 µM
c1ccc(CN2CCN3CCN(CC2)CCN(Cc2ccccc2)CC3)cc1,26.1 µM,5.06 µM,21.9 µM,12.6 µM,16 µM,> 55.2 µM,8.06 µM,18.4 µM,18.2 µM,15.8 µM
